Assays:
[1] = molecular target: Cholinesterase (Equus caballus, UniProt P81908)
Description: Inhibition of equine serum BChE using butyrylthiocholine iodide as substrate preincubated for 10 mins prior to substrate addition by Ellman's method

[2] = molecular target: T1, Acetylcholinesterase (Electrophorus electricus, UniProt O42275)
Description: Inhibition of electric eel AChE using acetylthiocholine iodide as substrate preincubated for 10 mins prior to substrate addition by Ellman's method

[3] = molecular target: T1, Acetylcholinesterase; assay: Mixed-type inhibition of electric eel AChE using acetylthiocholine iodide as substrate by Lineweaver-Burk plot analysis

Chain of Cholinesterase (P81908 whole entry): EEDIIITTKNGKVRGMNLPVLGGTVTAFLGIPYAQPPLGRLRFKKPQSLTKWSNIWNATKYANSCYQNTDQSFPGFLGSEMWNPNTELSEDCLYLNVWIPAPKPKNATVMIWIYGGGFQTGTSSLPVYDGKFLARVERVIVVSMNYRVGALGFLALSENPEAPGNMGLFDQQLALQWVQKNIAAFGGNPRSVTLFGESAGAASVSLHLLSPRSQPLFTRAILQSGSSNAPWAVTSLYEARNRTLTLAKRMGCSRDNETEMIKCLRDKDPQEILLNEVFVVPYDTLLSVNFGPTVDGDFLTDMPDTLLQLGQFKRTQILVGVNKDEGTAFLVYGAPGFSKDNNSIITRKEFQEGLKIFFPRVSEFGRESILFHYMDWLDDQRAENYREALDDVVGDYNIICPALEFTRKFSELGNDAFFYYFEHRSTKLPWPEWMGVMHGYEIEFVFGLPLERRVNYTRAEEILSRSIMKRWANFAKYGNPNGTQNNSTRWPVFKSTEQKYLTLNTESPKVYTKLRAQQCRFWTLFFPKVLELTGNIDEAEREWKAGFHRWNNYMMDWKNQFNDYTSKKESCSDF
T1 sequence (O42275 whole entry): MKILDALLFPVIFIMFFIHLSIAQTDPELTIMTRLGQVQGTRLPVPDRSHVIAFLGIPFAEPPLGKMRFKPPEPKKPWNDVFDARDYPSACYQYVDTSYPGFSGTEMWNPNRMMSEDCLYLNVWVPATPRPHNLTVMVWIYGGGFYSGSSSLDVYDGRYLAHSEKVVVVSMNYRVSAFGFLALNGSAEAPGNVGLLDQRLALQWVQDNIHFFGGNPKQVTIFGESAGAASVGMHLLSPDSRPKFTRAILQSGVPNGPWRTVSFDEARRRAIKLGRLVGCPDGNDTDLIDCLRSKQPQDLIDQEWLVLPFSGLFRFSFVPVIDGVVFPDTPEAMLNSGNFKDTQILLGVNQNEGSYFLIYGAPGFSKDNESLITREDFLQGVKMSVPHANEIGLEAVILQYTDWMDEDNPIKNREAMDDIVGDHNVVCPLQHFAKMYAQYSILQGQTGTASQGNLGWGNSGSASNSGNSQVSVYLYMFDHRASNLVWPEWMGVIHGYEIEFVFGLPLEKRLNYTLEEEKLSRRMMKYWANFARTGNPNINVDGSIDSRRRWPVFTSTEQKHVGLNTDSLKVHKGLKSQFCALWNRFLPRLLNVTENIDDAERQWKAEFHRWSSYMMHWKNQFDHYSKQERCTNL

Structure (SMILES): Nc1c2c(nc3c1C(c1ccncc1)c1c(c4ccccc4oc1=O)O3)CCCC2 (configuration not stated)
- IC50 [1]: > 30000 nM
- IC50 [2]: 53 nM

Structure (SMILES): Nc1c2c(nc3c1C(c1cccs1)c1c(c4ccccc4oc1=O)O3)CCCC2 (configuration not stated)
- IC50 [1]: 6700 nM
- IC50 [2]: 84 nM

Structure (SMILES): Nc1c2c(nc3c1C(c1ccc(Cl)cc1Cl)c1c(c4ccccc4oc1=O)O3)CCCC2 (configuration not stated)
- IC50 [1]: > 30000 nM
- IC50 [2]: 50 nM

Structure (SMILES): Cc1ccc(C2c3c(nc4c(c3N)CCCC4)Oc3c2c(=O)oc2ccccc32)cc1 (configuration not stated)
- IC50 [1]: > 30000 nM
- IC50 [2]: 14 nM

Structure (SMILES): Nc1c2c(nc3c1C(c1ccc4c(c1)OCO4)c1c(c4ccccc4oc1=O)O3)CCCC2 (configuration not stated)
- IC50 [1]: 570 nM
- IC50 [2]: 13 nM

Structure (SMILES): Nc1c2c(nc3c1C(c1ccccc1Cl)c1c(c4ccccc4oc1=O)O3)CCCC2 (configuration not stated)
- IC50 [1]: 4900 nM
- IC50 [2]: 35 nM

Structure (SMILES): COc1ccc(C2c3c(nc4c(c3N)CCCC4)Oc3c2c(=O)oc2ccccc32)cc1OC (configuration not stated)
- IC50 [1]: 2100 nM
- IC50 [2]: 43 nM

Structure (SMILES): CCCCC1c2c(nc3c(c2N)CCCC3)Oc2c1c(=O)oc1ccccc21 (configuration not stated)
- IC50 [1]: 23000 nM
- IC50 [2]: 57 nM

Structure (SMILES): CCC1c2c(nc3c(c2N)CCCC3)Oc2c1c(=O)oc1ccccc21 (configuration not stated)
- IC50 [1]: 5600 nM
- IC50 [2]: 266 nM

Structure (SMILES): Nc1c2c(nc3c1C(c1cccc(F)c1)c1c(c4ccccc4oc1=O)O3)CCCC2 (configuration not stated)
- IC50 [1]: 890 nM
- IC50 [2]: 67 nM

Structure (SMILES): COc1cc(C2c3c(nc4c(c3N)CCCC4)Oc3c2c(=O)oc2ccccc32)cc(OC)c1OC (configuration not stated)
- IC50 [1]: 3260 nM
- IC50 [2]: 69 nM

Structure (SMILES): Nc1c2c(nc3c1C(c1cccc(Cl)c1)c1c(c4ccccc4oc1=O)O3)CCCC2 (configuration not stated)
- IC50 [1]: > 30000 nM
- IC50 [2]: 288 nM

Structure (SMILES): Nc1c2c(nc3c1C(c1ccccc1)c1c(c4ccccc4oc1=O)O3)CCCC2 (configuration not stated)
- IC50 [1]: 1700 nM
- IC50 [2]: 24 nM

Structure (SMILES): CC1c2c(nc3c(c2N)CCCC3)Oc2c1c(=O)oc1ccccc21 (configuration not stated)
- IC50 [1]: 1220 nM
- IC50 [2]: 432 nM

Structure (SMILES): Nc1c2c(nc3c1C(c1cccc([N+](=O)[O-])c1)c1c(c4ccccc4oc1=O)O3)CCCC2 (configuration not stated)
- IC50 [1]: 18300 nM
- IC50 [2]: 141 nM

Structure (SMILES): Nc1c2c(nc3c1C(c1ccc(F)cc1)c1c(c4ccccc4oc1=O)O3)CCCC2 (configuration not stated)
- IC50 [1]: 15700 nM
- Ki [3]: 22.4 nM
- IC50 [2]: 5 nM

Structure (SMILES): Nc1c2c(nc3c1C(c1ccc(Cl)cc1)c1c(c4ccccc4oc1=O)O3)CCCC2 (configuration not stated)
- IC50 [1]: > 30000 nM
- IC50 [2]: 93 nM

Structure (SMILES): COc1ccc(C2c3c(nc4c(c3N)CCCC4)Oc3c2c(=O)oc2ccccc32)cc1 (configuration not stated)
- IC50 [1]: 840 nM
- IC50 [2]: 16 nM

Reference: ChEMBL document CHEMBL2424599, “Design, synthesis, docking study and biological evaluation of some novel tetrahydrochromeno [3',4':5,6]pyrano[2,3-b]quinolin-6(7H)-one derivatives against acetyl- and butyrylcholinesterase” (Eur J Med Chem, 2013)
